Assay results from patent US11666562B2, “Ilaprazole for inhibiting the release of enveloped viruses from cells” (Northwestern University, priority 2020, dated 2023).
Like-named read-outs stand apart in the source and are kept apart here.

Tests used:
HIV-1 [1] = experiment: Release of HIV-1 from transfected 293T cells, p24 in media; type: cell-based; details: 293T cells transfected with pR9-HIV-1Ba-L, read-out: EC50, inhibition of HIV-1 release
Description: Effect of Ilaprazole on release of HIV-1 in vitro. To establish the broad-spectrum potential of ilaprazole, we tested whether ilaprazole would inhibit the release of HIV-1 from 293T cells. To this end, cells were transfected with pR9-HIV-1Ba-L plasmid and release of virus into the media fraction was detected by monitoring the capsid (CA) protein (p24) via enzyme linked immunosorbent assay analysis. The drug was tested at concentrations between 0 and 40 μM and the effect of the drug on release of virus assessed (Table 4, shown in FIG. 8, column 2). Ilaprazole was effective at inhibiting the release of HIV-1 from cells with a calculated EC50 of 1 μM or less as described in Materials and Methods.
HIV-1 transfection of 293T cells. 293T cells (American Type Culture Collection) were grown in a 24-well Clear Flat Bottom TC-treated Multiwell Cell Culture Plate using Dulbecco's modified Eagle's medium (Cellgro) containing fetal bovine serum (10%), 100 U/ml penicillin, 100 μg/ml streptomycin, and 292 μg/ml 1-glutamine (Cellgro). […] Virus released from cells was quantified by media-associated p24 determined using fluorescently tagged CA targeting antibody (PerkinElmer) and equivalent amounts of p24 as standards.
Drug potency and cell toxicity. EC50 calculations were determined by using AAT Bioquest's EC50 calculator. […]

293T cells = experiment: 293T cell toxicity; type: cell-based; details: at drug concentrations that inhibited release of HIV-1
Description: Drug potency and cell toxicity. EC50 calculations were determined by using AAT Bioquest's EC50 calculator. Cell toxicity at different concentrations of drugs as indicated was determine using the Cell Proliferation Reagent WST-1 (Roche Diagnostics) or cellular 96® Aqueous One Reagent viability reagent according to manufacturer's instructions. For 293T cells, the concentration of DMSO was 0.2% or less and assays were carried out with DMEM with 10% serum. Cell toxicity experiments were repeated twice.

HIV-1 [2] = details: earlier reports (refs 5, 29); cited from earlier work

SMILES	EC50 (HIV-1 [1])	EC50 (HIV-1 [1]; Human immunodeficiency virus 1, HEK-293T)	Toxicity to 293T cells (293T cells)	Inhibition of release of infectious HIV-1 from 293T cells (HIV-1 [2])
COc1ccnc(C[S+]([O-])c2nc3ccc(-n4cccc4)cc3[nH]2)c1C (stereo not shown) [Ilaprazole, 2-[(4-methoxy-3-methylpyridin-2-yl)methylsulfinyl]-6-pyrrol-1-yl-1H-benzimidazole]	≤ 1000 nM	800 to 1200 nM	did not detect toxicity	–
COc1ccc2[nH]c([S+]([O-])Cc3ncc(C)c(OC)c3C)nc2n1 (stereo not shown) [Tenatoprazole]	–	–	–	quantitatively inhibit the release
